13 compounds from article PMC10283044, “Structure–Activity Relationship of Lower Chlorinated Biphenyls and Their Human-Relevant Metabolites for Astrocyte Toxicity” (Chemical Research in Toxicology, 2023) can be followed below.

SMILES strings stand for the structures. Structures can show the parent of a compound that is named as a salt. Where two headings read alike, the source gives them in different places.

Data set [1] is described as follows: MTT cell viability assay in mouse primary glial cells. It counts as cell-based, C57BL/6 mouse. As to conditions: mouse, primary mixed glial cells, MTT, primary glial cells from C57BL/6 mice. The procedure:
(§1) Primary glial cell cultures obtained from PND1-3 C57BL/6 mice pups were provided by Dr. Tjalkens at Colorado State University, Fort Collins, CO, U.S.A. The primary astroglial cell cultures were grown and maintained, as described previously in MEM medium supplemented with 10% FBS and 1% P/S.[37]
(§2) All the LC-PCB exposures or their corresponding human-relevant metabolite exposures were performed in serum-free, phenol-red-free cell culture media suited for the respective cell type described above. The exposures were within a concentration range of 0.5–50 μM for 24 h at 37 °C under humidified conditions at 5% CO2. DMSO was used as a negative control. All stock solutions of the test compounds were prepared in DMSO. The final DMSO concentration was maintained at <0.5% for all the exposures. After the 24 h incubation, either an MTT assay for cell viability or an LDH assay for cytotoxicity was employed.
(§3) C6 or primary cells were seeded in 24-well cell culture plates (Corning Inc., Corning, NY, U.S.A; Cat No. 3526) and allowed to grow until 80–90% confluent. The cells were then exposed to test compounds, as described above (0, 0.5, 1, 5, 10, 20, and 50 μM). The MTT assay was performed, as described[38] with modifications. After 24 h of exposure, the media was removed, and cells were washed with HBSS once. Two hundred microliters of 0.5 mg/mL MTT solution prepared in HBSS/Glucose (Glucose used at 1 mg/mL HBSS) was added to each well of the 24-well plate. The cells were incubated with the MTT solution for 45 min to 1 h at 37 °C under humidified conditions at 5% CO2. After incubation, the MTT solution was removed, and the water-insoluble purple formazan product was dissolved in 400 μL DMSO. This DMSO solution was added to a clear, flat bottom 96-well polystyrene plate (Cat. No. 12-565-501, Thermo Fisher Scientific, Waltham, MA. U.S.A.) in duplicate and read at 570 and 650 nm using a microplate reader (SpectraMax 190, Molecular Devices, San Jose, CA. U.S.A.). The mean percent cell viability was calculated as follows: [drawing 1]
(Formazan colour is commonly taken as a measure of viable cells.)

In another data set the test system is C6 cells. Nature of the data set: MTT cell viability assay in C6 cells. It counts as cell-based. As to conditions: 0.5 to 50 μM; for toxicity (cell viability) in the tested concentration range: C6 cells, 24 h; for IC50: Rattus norvegicus, C6 cell line, 24 h exposure. The procedure:
C6 cells (CCL-107, Lot No. 63821786) were purchased from the American Type Culture Collection (ATCC, Manassas, VA, U.S.A.). This cell line has been previously used as an in vitro astrocyte model for toxicity[22] and is morphologically and functionally similar to primary astrocyte cultures.[34] The C6 cells were grown and maintained at 37 °C under humidified conditions at 5% CO2 in DMEM/F12 medium supplemented with 10% FBS and 1% P/S. The cells were maintained at a seeding density of 1 × 10^6 cells in 100 mm tissue culture-treated dishes (Cat. No. 430167, Corning, Somerville, MA, U.S.A.). All the experiments for the current study utilizing C6 cells have been performed within passage 2 and passage 20.
as §2, §3

For the next data set, the system named is rat primary astrocytes. Nature of the data set: MTT cell viability assay in rat primary astrocytes. It counts as cell-based, Sprague-Dawley rat. As to conditions: 24 h.
Excerpt: Sprague-Dawley male and female rats were utilized to obtain cultures of sex-specific primary cortical cells. All animal experiments were approved by the Institutional Animal Care and Uses Committee (IACUC) at the University of Iowa. The rat pups were sex-segregated as males and females based on visual examination and later confirmed by the presence of a Y chromosome-specific gene Sry by PCR. The gene for beta-actin, Actb, was used as a control. The primer sequences used for PCR amplification were as described,[35] which yielded a 317-bp product for Sry and a 220-bp product for Actb. Both products were confirmed by gel electrophoresis on a 1% agarose gel after PCR amplification was completed. As previously described, with modifications, astrocytes were obtained from the cortex of PND2/3 rats.[36] Briefly, cortical sections were dissociated in minimal essential medium with Earle’s salts for suspension cultures (S-MEM; Life Technologies) with 1% penicillin/streptomycin and 1.5 U/mL dispase (Life Technologies) for 60 min, aliquoting and replacing dissociation media every 10 min, adding 8000 U/mL DNase I in water after the first digestion. The enzymatic digestion was stopped by adding a growth medium containing minimal essential medium with Earle’s salts (MEM; Life Technologies) with 1% P/S and 10% heat-inactivated horse serum. After digestion, cells were centrifuged for 10 min at 1000 × g at 4 °C, and the pellet was resuspended in a growth medium. Cells were assessed for count and viability and then plated at 10,000 viable cells/cm^2 in T75 flasks. Flasks were shaken after 24 h, and media was replaced to begin removing microglia and then repeated every 2–3 days. Flow cytometry utilizing GFAP and IBA1 antibodies was run at passage 2 to confirm the elimination of microglia from the primary astrocyte cultures. The rat primary astrocyte cultures were maintained in MEM with 1% P/S and 10% heat-inactivated horse serum at 37 °C under humidified conditions at 5% CO2. The detailed protocol for astrocyte isolation of sex segregated rat pups and further validation of purity of astrocyte cultures is published and can be accessed at: dx.doi.org/10.17504/protocols.io.e6nvwjry7lmk/v1.
as §2, §3

Data set [2] deals with mouse primary mixed glial cells. Put plainly: MTT cell viability assay in mouse primary glial cells. As to conditions: Glial cell; mouse primary mixed glial cells (about 80% astrocytes, 20% microglia), MTT assay, 24 h. In kind it is cell-based, C57BL/6 mouse. The procedure:
as §1, §2, §3

The mark [3] stands for this setting: read-out: sulfated metabolite IC50.
Setting [4] is: Astrocyte, sex segregated rat primary astrocytes, female, read-out: IC50 females.
Where [5] appears, read: Astrocyte, sex segregated rat primary astrocytes, male, read-out: IC50 males.
[6] abbreviates: read-out: hydroxylated metabolite IC50.

The term viability denotes a read-out of living cells in per cent, often relative to untreated cells. A word on the IC50: it is the concentration that gives 50% inhibition.

Consider `O=S(=O)(O)Oc1cc(Cl)c(-c2cc(Cl)ccc2Cl)cc1Cl` [4-OH-PCB52 sulfate], for which the viability at 24 h, 5 µM in data set [1] is over 150%. Further, the viability at 24 h, 10 μM in data set [1] (next higher concentration after 5 μM) is 20%. Besides, the “toxicity (cell viability) in the tested concentration range” value (“toxicity (cell viability)” for short) with C6 cells is given as “reduced cell viability”. The figures for the IC50 in the data set with C6 cells (setting [3]), in the data set with rat primary astrocytes (setting [4]) and in the data set on rat primary astrocytes (setting [5]) were 8.4 µM, 6.9 µM and 7 µM, respectively.
In the case of `Oc1cc(Cl)c(-c2cc(Cl)ccc2Cl)cc1Cl` [4-OH-PCB52], the viability at 24 h, 1 µM in data set [1] (1 μM) amounted to 150%. In data set [1], the viability at 24 h, 5 µM was about 0%. The half-inhibitory concentration (IC50) with C6 cells (setting [6]) came to 2.2 µM; with rat primary astrocytes (setting [4]) it was 4.4 µM; in the data set on rat primary astrocytes (setting [5]), 4.9 µM.
As for `Clc1ccc(-c2ccccc2)cc1` [PCB3, 4-chlorobiphenyl], the “toxicity (cell viability)” value with C6 cells was “non-toxic”. For the same compound, the IC50 in the data set on C6 cells (read-out: parent compound IC50) was over 50 µM.
Take `Clc1cccc(-c2cccc(Cl)c2)c1` [PCB11, 3,3′-dichlorobiphenyl]: in the data set with C6 cells, the “toxicity (cell viability)” value is given as “non-toxic”. Also, the concentration for half-maximal inhibition (IC50) in the data set on C6 cells (read-out: parent compound IC50) was over 50 µM.
`Clc1cccc(-c2ccc(Cl)cc2Cl)c1` [PCB25, 2,3′,4-trichlorobiphenyl]: in the data set with C6 cells (read-out: parent compound IC50), the IC50 is 10 µM.
Regarding `Clc1ccc(-c2ccc(Cl)cc2Cl)cc1` [PCB28, 2,4,4′-trichlorobiphenyl], the concentration for half-maximal inhibition (IC50) in the data set with C6 cells (read-out: parent compound IC50) was about 25 µM.
As for `Clc1ccc(Cl)c(-c2cc(Cl)ccc2Cl)c1` [PCB52, 2,2′,5,5′-tetrachlorobiphenyl], the IC50 turned out to be 9.8 µM in data set [2]; 8.8 µM in the data set with C6 cells (read-out: parent compound IC50); 14.4 µM in the data set with rat primary astrocytes (setting [4]); 15.3 µM in the data set with rat primary astrocytes (setting [5]); 11.8 µM in the data set on rat primary astrocytes (mixed rat primary astrocyte cultures (>95% astrocytes), read-out: IC50).
As for `Oc1ccc(-c2ccc(Cl)cc2)cc1` [PCB 3 hydroxylated metabolite], in the data set on C6 cells (setting [6]), the IC50 turned out to be 21.4 µM.
Regarding `O=S(=O)(O)Oc1ccc(-c2ccc(Cl)cc2)cc1` [PCB 3 sulfated metabolite], the IC50 with C6 cells (setting [3]) is over 50 µM.
On to `Oc1ccc(-c2cccc(Cl)c2)cc1Cl` [PCB 11 hydroxylated metabolite], for which, in the data set on C6 cells (setting [6]), the IC50 is 13 µM.
Regarding `O=S(=O)(O)Oc1ccc(-c2cccc(Cl)c2)cc1Cl` [PCB 11 sulfated metabolite], in the data set with C6 cells (setting [3]), the 50% inhibitory concentration (IC50) is over 50 µM.
For the compound `Oc1ccc(-c2ccc(Cl)cc2Cl)cc1Cl` [PCB 25 hydroxylated metabolite], the IC50 in the data set with C6 cells (setting [6]) amounted to 5.3 µM.
Consider `O=S(=O)(O)Oc1ccc(-c2ccc(Cl)cc2Cl)cc1Cl` [PCB 25 sulfated metabolite], for which, in the data set with C6 cells (setting [3]), the IC50 is over 50 µM.
